# Values quoted from earlier work in patent publication US10215758B2, “Platinum-labeled probes for mass cytometry” (priority 2015, dated 2019).
# Conditions: human, in vivo; cited from earlier work
smiles,measurement,value
"N.N.[Cl][Pt][Cl] [cisplatin, cis-diamminedichloroplatinum(II)]",binding to serum protein,most cisplatin binds to serum protein within hours
